{
  "source": "patent US20230069886A1",
  "about": "“AROMATIC SULPHONAMIDES DERIVATIVES THAT INHIBITS PDI A3, THEIR SYNTHESIS AND USE” (Uniwersytet Jagiellonski, priority 2020, published 2023)",
  "key": {"HT-29": {"tested_on": "HT-29", "experiment": "MTT antiproliferative assay, 72 h, HT-29", "assay_type": "cell-based, human", "conditions": "72 hours exposition", "description": "Anticancer activity of selected compounds of invention, PDI A3-inhibitors has been also tested in vitro in antiproliferative assay in normoxic and hypoxic conditions as well in estrogen-stimulated cancer cells. In the experiment, cells were seeded on 96-well plates (Sarstedt, Germany) in appropriate culture medium at a density of 10^5 cells/mL 24 h before adding the tested compounds. Cells were treated with each compound in four concentrations in the range 0.1-100 μg/mL. […] After 72 h of compound treatment at 37° C., 5% CO2 humid atmosphere and in wo different oxygen level conditions: 21%—normal and <1%—hypoxia. In some experiments the MDA-MB-231 and MCF-7 cells were seeded with or without 200 nM estradiol and after 24 h the tested compounds were added. […] Briefly, cells were fixed with 50 μL/well of 50% (w/v) trichloroacetic acid (Avantor Performance Materials, Gliwice, Poland). After 1 h incubation, plates were washed several times with tap water and 50 μL of 0.4% (w/v) solution of sulforhodamine B (Sigma-Aldrich, Germany) in 1% (v/v) acetic acid (Avantor Performance Materials, Gliwice, Poland) was added to each well. After 30 min incubation at room temperature, unbound dye was washed out with 1% (v/v) acetic acid, whereas bound dye was solubilized with 10 mM unbuffered TRIS (Avantor Performance Materials, Gliwice, Poland) solution. The entire procedure was performed using a BioTek EL-406 washing station (BioTek Instruments, USA). After additional 30 min, absorbance was read using a Biotek Hybrid H4 reader (BioTek Instruments, USA) at 540 nm wavelength. […] Absorbance was measured using a Biotek Hybrid H4 reader at 570 nm wavelength for MTT assay.\nCompounds at each concentration were tested in triplicate in a single experiment and each experiment was repeated at least three times independently. Results are presented as mean IC50±SD."}, "PDI A3": {"target": "T1, PDI A3 (Homo sapiens, UniProt P30101)", "T1 construct": "purchased Mybiosource; host or cells: E. coli", "T1 sequence (P30101 25-505)": "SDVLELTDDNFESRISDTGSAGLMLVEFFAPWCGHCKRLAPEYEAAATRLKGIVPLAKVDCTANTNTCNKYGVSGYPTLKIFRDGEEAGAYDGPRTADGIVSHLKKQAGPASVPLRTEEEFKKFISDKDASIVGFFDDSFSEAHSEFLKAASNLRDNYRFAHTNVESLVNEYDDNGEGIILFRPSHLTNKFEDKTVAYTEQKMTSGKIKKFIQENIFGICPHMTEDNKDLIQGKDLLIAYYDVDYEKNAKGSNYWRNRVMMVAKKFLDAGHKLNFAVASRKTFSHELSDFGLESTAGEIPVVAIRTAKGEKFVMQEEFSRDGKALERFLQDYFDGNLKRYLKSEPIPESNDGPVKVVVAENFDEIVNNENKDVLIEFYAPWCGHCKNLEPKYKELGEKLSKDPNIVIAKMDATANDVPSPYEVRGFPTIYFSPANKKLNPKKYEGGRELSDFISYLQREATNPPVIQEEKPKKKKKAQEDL", "experiment": "PDI A3 inhibition, insulin turbidimetric assay", "assay_type": "biochemical", "conditions": "10 ug/ml PDI A3, incubated 60 min at 37° C., turbidity at 650 nm; read-out: Inhibition of PDI A3 (EC 50)", "how_it_was_run": "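Recombinant E. coli-expressed PDIA3 (10 ug/ml) was preincubated with compound for 60 min at 37° C in 0.1 mM phosphate buffer pH 7.6, 1 mM EDTA, 0.087 mM DTT. Reaction was started with insulin (0.15 mM final) and DTT (0.174 mM final). Insulin reduction was followed as turbidity at 650 nm over 120-s recordings, against reference samples without PDI.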"}, "MCF-7": {"tested_on": "MCF-7", "experiment": "MTT antiproliferative assay, 48 h, MCF-7", "assay_type": "cell-based, human", "conditions": "48-hour exposition, read-out: Cytotoxicity, IC50, μM MCF-7"}, "HT-1080": {"tested_on": "HT-1080", "experiment": "MTT antiproliferative assay, 48 h, HT-1080", "assay_type": "cell-based, human", "conditions": "48-hour exposition, read-out: Cytotoxicity, IC50, μM HT-1080", "description": "Anticancer activity of compounds of invention, PDI A3-inhibitors has been tested in vitro in classical antiproliferative assay in various cancer cells lines. Monolayer tumor cell lines MDA-MB-231 (human mammary breast adenocarcinoma), MCF-7 (human breast adenocarcinoma, estrogen-positive), HT-1080 (human fibrosarcoma) and Caco-2 (human colon adenocarcinoma) were cultured in standard medium DMEM (Dulbecco's modified Eagle's medium) (“Sigma”) supplemented with 10% foetal bovine serum (“Sigma”). About 2000-4000 cells per well (depending on line nature) were placed in 96-well plates and after 24 h compounds were added to the wells. Untreated cells were used as a control. The plates were incubated for 48 h, 37° C., 5% CO2. The number of surviving cells was determined using 3-(4,5-dimethylthiazol-2-yl)-2,5-diphenyltetrazolinium bromide (MTT). MTT-test: after incubating culture medium was removed and 200 μL fresh medium with 20 μL MTT (2 mg/mL in HBSS) was added in each well of the plate. After incubation (3 hr., 37° C., 5% CO2), the medium with MTT was removed and 200 μL DMSO were added at once to each sample. The samples were tested at 540 nm on Thermo Scientific Multiskan EX microplate photometer. The half-maximal inhibitory concentration (IC50) of each compound was calculated using Graph Pad Prism® 3.0."}},
  "data": [
    {"smiles": "COC(=O)C1CN1S(=O)(=O)c1ccc2c(C=O)c(N(C)C)ccc2c1", "note": "(stereo not shown) [Compound C-3390, Methyl 1-[[6-(dimethylamino)-5-formyl-2-naphthyl]sulfonyl]aziridine-2-calboxylate]", "values": [
      {"measurement": "IC50 [μg/ml] HT-29 normal", "setting": "HT-29", "result": "33.6 ± 2.9", "unit": "µg/mL"},
      {"measurement": "EC50", "setting": "PDI A3", "result": 4, "unit": "µM"},
      {"measurement": "IC50", "setting": "MCF-7", "result": "20 ± 0.3", "unit": "µM"},
      {"measurement": "IC50", "setting": "HT-1080", "result": "7.9 ± 0.9", "unit": "µM"}
    ]}
  ]
}
